What was measured:
Type in all cases: cell-based
HIV-2 = experiment: MT4 cell assay, antiviral HIV activity (propidium iodide); details: Human immunodeficiency virus 2, Virus Type HIV-2, read-out: IC50 (nM) Range
[1] = system: isogenic HIV-1 RT mutant virus Y188C; experiment: HeLa cell assay (HIV-LTR β-galactosidase reporter); details: Human immunodeficiency virus 1, HeLa, read-out: IC50 (nM) Range
How it was run: (§1)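 HeLa-CD4-LTR-β-gal cells, seeded overnight, were infected with isogenic recombinant HXB2 RT-mutant virus (50 to 70 total RLUs per well, DEAE-dextran) for 1.5 to 2 hours. Five-fold compound titrations (2 μM to 1 pM final, 0.1% DMSO) followed, with 72 h at 37° C. IC50 is chemiluminescent β-gal signal inhibition versus untreated controls.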

[2] = system: isogenic HIV-1 RT mutant virus G190E; experiment: HeLa cell assay (HIV-LTR β-galactosidase reporter); details: Human immunodeficiency virus 1, HeLa, read-out: IC50 (nM) Range
How it was run: as §1

[3] = system: isogenic HIV-1 RT mutant virus E138K; experiment: HeLa cell assay (HIV-LTR β-galactosidase reporter); details: Human immunodeficiency virus 1, HeLa, read-out: IC50 (nM) Range
How it was run: as §1

[4] = system: isogenic HIV-1 RT mutant virus K103N/L1001; experiment: HeLa cell assay (HIV-LTR β-galactosidase reporter); details: Human immunodeficiency virus 1, HeLa, read-out: IC50 (nM) Range
How it was run: as §1

Cc1cc(S(N)(=O)=O)ccc1NC(=O)COc1ccc(Cl)cc1C(=O)c1cc(F)cc(F)c1 [Compound 62]
IC50 (HIV-2): 1000 to 3000 nM
IC50 [1]: < 10 nM
IC50 [2]: < 10 nM
IC50 [3]: < 10 nM
IC50 [4]: < 10 nM

Cc1cc(S(N)(=O)=O)ccc1NC(=O)COc1ccc(Cl)cc1C(=O)c1cc(F)cc(C(F)(F)F)c1 [Compound 78]
IC50 [1]: < 10 nM
IC50 [2]: < 10 nM
IC50 [3]: < 10 nM
IC50 [4]: < 10 nM

Cc1cc2nc[nH]c2cc1NC(=O)COc1ccc(Cl)cc1C(=O)c1cc(F)cc(C(F)(F)F)c1 [Compound 239]
IC50 [1]: < 10 nM
IC50 [2]: < 10 nM
IC50 [3]: < 10 nM
IC50 [4]: < 10 nM

Cc1cc(OCCCS(N)(=O)=O)ccc1NC(=O)COc1ccc(Cl)cc1C(=O)c1cc(F)cc(C(F)(F)F)c1 [Compound 257]
IC50 [1]: < 10 nM
IC50 [2]: < 10 nM
IC50 [3]: < 10 nM
IC50 [4]: < 10 nM

Cc1cc(S(N)(=O)=O)ccc1NC(=O)COc1ccc(Cl)cc1C(=O)c1cccc(C#N)c1 [Compound 448]
IC50 (HIV-2): 1000 to 3000 nM
IC50 [1]: < 10 nM
IC50 [2]: < 10 nM
IC50 [3]: < 10 nM
IC50 [4]: < 10 nM

Cc1cc2cn[nH]c2cc1NC(=O)COc1ccc(Cl)cc1C(=O)c1cccc(C#N)c1 [Compound 453]
IC50 [1]: < 10 nM
